According to US10344026B2, “Compositions and methods of targeting mutant K-ras” (NANTBIO, INC., priority 2017, dated 2019):
pEC50, pIC50: −log10 of the molar value.

Experiments:
Type in all cases: cell-based
[1] = test system: U87-MG (K-Ras wild type cell line); assay: Viability assay (CellTiterBlue, 72 hr) U87-MG; conditions: Homo sapiens, U-87 MG, GI50, CellTiterBlue, U87-MG K-Ras wild-type
In short: (§1)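 GI50 calculation uses a window set by DMSO-treated wells (100% viability) and 100 uM tamoxifen (0%). Cells (1000/well) sit 18 hr at 37 °C, receive compound for 72 hr in 0.5% DMSO, then get CellTiterBlue for 3 hr before reading at Ex550/Em590.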

[2] = test system: Ishikawa (K-Ras wild type cell line); assay: Viability assay (CellTiterBlue, 72 hr) Ishikawa; conditions: Homo sapiens, GI50, CellTiterBlue, Ishikawa K-Ras wild-type
In short: as §1

Panc1-G12D = assay: Viability assay (CellTiterBlue, 72 hr) Panc1; conditions: Homo sapiens, PANC-1, GI50, CellTiterBlue, Panc1 K-Ras G12D, read-out: 72 hr Cell Viability Panc1 (G12D)
In short: as §1

[3] = test system: phospho-Akt in Panc1 (G12D); assay: In-Cell Western phospho-Akt, Panc1; conditions: Homo sapiens, PANC-1, 1 h; Panc1, one hour treatment; read-out: In-Cell Western Panc1 (G12D) Akt (P)
In short: (§2)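 Cells were seeded at 3000 cells/well, incubated 18 hr at 37° C, then treated with compound for 1 hr (0.5% DMSO final). After fixation, permeabilization and blocking, phospho-Akt or phospho-ERK antibodies were applied overnight at 4° C, followed by secondary antibody; cellular fluorescence was imaged and EC50 calculated.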

[4] = test system: HCC827 (K-Ras wild type cell line); assay: Viability assay (CellTiterBlue, 72 hr) HCC827; conditions: Homo sapiens, GI50, CellTiterBlue, HCC827 K-Ras wild-type
In short: as §1

wild type K-Ras = target: T1, wild type K-Ras (Homo sapiens, UniProt P01116); assay: G-LISA Ras activation, 293H cells transfected with Ras wild-type, EGF stimulated; conditions: compound 1 hour, then 100 ng/ml EGF 2 minutes
T1 construct: expressed in transfected cells; host or cells: 293H cells
T1 sequence (P01116 whole entry): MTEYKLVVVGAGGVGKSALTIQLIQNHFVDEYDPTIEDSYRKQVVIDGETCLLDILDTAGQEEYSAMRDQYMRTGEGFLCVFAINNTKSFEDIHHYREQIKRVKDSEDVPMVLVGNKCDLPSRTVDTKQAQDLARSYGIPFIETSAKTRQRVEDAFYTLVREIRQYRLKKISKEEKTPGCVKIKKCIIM
In short: (§3)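 Cells: 293H, Ras plasmid transfection (5 μg). Cpd 3.125-25 μM, 1 h; WT cells + EGF 100 ng/ml, 2 min. Lysed on ice; active Ras by G-LISA.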

[5] = test system: phospho-ERK in HCC827 (Wild-type); assay: In-Cell Western phospho-ERK, HCC827; conditions: Homo sapiens, 1 h; HCC827, one hour treatment; read-out: In-Cell Western HCC827 (Wild-type) Erk (P)
In short: as §2

[6] = test system: phospho-Akt in HCC827 (Wild-type); assay: In-Cell Western phospho-Akt, HCC827; conditions: Homo sapiens, 1 h; HCC827, one hour treatment; read-out: In-Cell Western HCC827 (Wild-type) Akt (P)
Experimental: In-cell phosphorylation assays for Erk and Akt were performed on several of the compounds and exemplary results are shown in Table 3 below using HCC827 and A375 cell lines for wild type K-Ras and Panc1 and Panc10.05 cell lines for G12D K-Ras mutants. Results are expressed in μM and corresponding structures are shown in FIGS. 2A-2G and Examples 1-152, above.
Cells are seeded in complete medium into black sided, clear-bottom 384-well microplates at 3000 cells/[…]/well. Plates are returned to 37° C. CO2 incubator for 18 hr. Drug is made as 200× in DMSO and diluted into medium to 10×. To each well is added 4 ul 10× test article or controls, and plates are returned to the incubator. Final assay DMSO concentration is 0.5%. After one hour, cells are fixed in formaldehyde, rinsed & permeabilized with triton X-100, and blocked with BSA/Goat serum blocking solution. Primary phospho-Akt and phospho-ERK antibodies are added and plates are incubated overnight at 4° C. Plates are rinsed with Tween-20 wash buffer and secondary antibody (Goat anti-rabbit, Thermofisher) is added. After 2 hours, plates are rinsed in Tween-20 wash buffer, and then PBS. Plates are imaged on the Celigo (Nexcelom) and cellular fluorescence is quantitated. Full inhibition of phospho-Akt is achieved with 1 uM BEZ235 (Sellekchem), while full inhibition of phospho-ERK is achieved with 1 uM MEK Inhibitor II Calbiochem). EC50 values are calculated using Graphpad Prism.

[7] = test system: phospho-ERK in Panc1 (G12D); assay: In-Cell Western phospho-ERK, Panc1; conditions: Homo sapiens, PANC-1, 1 h; Panc1, one hour treatment; read-out: In-Cell Western Panc1 (G12D) Erk (P)
In short: as §2

Panc10.05-G12D = assay: Viability assay (CellTiterBlue, 72 hr) Panc10.05; conditions: Homo sapiens, Panc1005, GI50, CellTiterBlue, Panc10.05 K-Ras G12D, read-out: 72 hr Cell Viability Panc10.05 (G12D)
In short: as §1

K-Ras G12D = target: T2, K-Ras G12D (Homo sapiens, UniProt P01116, G12D); assay: G-LISA Ras activation, 293H cells transfected with G12D mutant; conditions: compound 1 hour
T2 construct: expressed in transfected cells; host or cells: 293H cells
T2 sequence (P01116 whole entry G12D): as the sequence (P01116 whole entry) above, with G12D counted along it
In short: as §3

HCT116-G31D = assay: Viability assay (CellTiterBlue, 72 hr) HCT116; conditions: Homo sapiens, HCT-116, GI50, CellTiterBlue, HCT116 K-Ras G13D, read-out: 72 hr Cell Viability HCT116 (G13D)
In short: as §1

[8] = test system: phospho-Akt in Panc10.05 (G12D); assay: In-Cell Western phospho-Akt, Panc10.05; conditions: Homo sapiens, Panc1005, 1 h; Panc10.05, one hour treatment; read-out: In-Cell Western Panc10.05 (G12D) Akt (P)
In short: as §2

[9] = test system: phospho-ERK in Panc10.05 (G12D); assay: In-Cell Western phospho-ERK, Panc10.05; conditions: Homo sapiens, Panc1005, 1 h; Panc10.05, one hour treatment; read-out: In-Cell Western Panc10.05 (G12D) Erk (P)
In short: as §2

| SMILES | pIC50 [1] | pIC50 [2] | pIC50 (Panc1-G12D) | pEC50 [3] | pIC50 [4] | IC50 (wild type K-Ras) | pEC50 [5] | pEC50 [6] | pEC50 [7] | pIC50 (Panc10.05-G12D) | IC50 (K-Ras G12D) | pIC50 (HCT116-G31D) | pEC50 [8] | pEC50 [9] |
| --- | --- | --- | --- | --- | --- | --- | --- | --- | --- | --- | --- | --- | --- | --- |
| CCn1nc(C)c(C(=O)Nc2nc(-c3ccc4c(c3)CCC(=O)N4)cs2)c1C [Compound 41, 1-ethyl-3,5-dimethyl-N-(4-(2-oxo-1,2,3,4-tetrahydroquinolin-6-yl)thiazol-2-yl)-1H-pyrazole-4-carboxamide] | 5.15 | 4.74 | 4.92 | 5.52 | 5.22 | 7.5 µM | 4.66 | < 4.60 | 5.70 | 4.72 | 4.3 µM | < 4.60 | – | – |
| CCn1cc(C(=O)Nc2nc(-c3ccc4c(c3)CCC(=O)N4)cs2)cn1 [Compound 34, 1-ethyl-N-(4-(2-oxo-1,2,3,4-tetrahydroquinolin-6-yl)thiazol-2-yl)-1H-pyrazole-4-carboxamide] | < 4.60 | 5.05 | < 4.60 | < 4.60 | < 4.60 | – | < 4.60 | < 4.60 | 4.82 | 5.15 | 15.8 µM | < 4.60 | – | – |
| Cn1ncc(C(=O)Nc2nc(-c3ccc4c(c3)CCC(=O)N4)cs2)c1C1CC1 [Compound 35, 5-cyclopropyl-1-methyl-N-(4-(2-oxo-1,2,3,4-tetrahydroquinolin-6-yl)thiazol-2-yl)-1H-pyrazole-4-carboxamide] | 5.22 | 4.72 | < 4.60 | < 4.60 | 5.15 | – | 4.96 | < 4.60 | < 4.60 | < 4.60 | > 25 µM | < 4.60 | – | – |
| Cc1nn(C(C)C)cc1C(=O)Nc1nc(-c2ccc3c(c2)CCC(=O)N3)cs1 [Compound 36, 1-isopropyl-3-methyl-N-(4-(2-oxo-1,2,3,4-tetrahydroquinolin-6-yl)thiazol-2-yl)-1N-pyrazole-4-carboxamide] | < 4.60 | 5.15 | 4.85 | 4.82 | < 4.60 | 18.3 µM | 4.70 | < 4.60 | 5.70 | 5.52 | 7 µM | < 4.60 | – | – |
| CCc1nn(C)cc1C(=O)Nc1nc(-c2ccc3c(c2)CCC(=O)N3)cs1 [Compound 37, 3-ethyl-1-methyl-N-(4-(2-oxo-1,2,3,4-tetrahydroquinolin-6-yl)thiazol-2-yl)-1H-pyrazole-4-carboxamide] | 5.22 | < 4.60 | < 4.60 | 4.59 | 5.15 | – | < 4.60 | < 4.60 | < 4.60 | < 4.60 | > 25 µM | < 4.60 | – | – |
| Cc1nn(C)c(C)c1C(=O)Nc1nc(-c2ccc3c(c2)CCC(=O)N3)cs1 [Compound 40, 1,3,5-trimethyl-N-(4-(2-oxo-1,2,3,4-tetrahydroquinolin-6-yl)thiazol-2-yl)-1H-pyrazole-4-carboxamide] | 5.05 | < 4.60 | 4.62 | 5.15 | 5.15 | 23.3 µM | < 4.60 | 4.60 | 5.10 | < 4.60 | 6.1 µM | < 4.60 | – | – |
| Cc1nc(C2CCOC2O)sc1C(=O)Nc1nc(-c2ccc3c(c2)CCC(=O)N3Cc2cccnc2)cs1 (stereo not drawn) [Compound 71, 2-(2-hydroxytetrahydrofuran-3-yl)-4-methyl-N-(4-(2-oxo-1-(pyridin-3-ylmethyl)-1,2,3,4-tetrahydroquinolin-6-yl)thiazol-2-yl)thiazole-5-carboxamide] | – | 5.22 | 4.66 | 4.74 | 5.15 | – | 4.80 | 4.57 | 4.60 | 5.22 | – | 5.05 | < 4.60 | 4.80 |
| Cn1cc(C(=O)Nc2nc(-c3ccc4c(c3)CCC(=O)N4)cs2)c(C(F)(F)F)n1 [Compound 30, 1-methyl-N-(4-(2-oxo-1,2,3,4-tetrahydroquinolin-6-yl)thiazol-2-yl)-3-(trifluoromethyl)-1H-pyrazole-4-carboxamide] | < 4.60 | 4.74 | < 4.60 | < 4.60 | < 4.60 | – | 4.80 | < 4.60 | 5.10 | 4.64 | > 25 µM | < 4.60 | – | – |
| CCn1cc(C(=O)Nc2nc(-c3ccc4c(c3)CCC(=O)N4)cs2)c(C(F)(F)F)n1 [Compound 39, 1-ethyl-N-(4-(2-oxo-1,2,3,4-tetrahydroquinolin-6-yl)thiazol-2-yl)-3-(trifluoromethyl)-1-pyrazole-4-carboxamide] | < 4.60 | < 4.60 | < 4.60 | < 4.60 | < 4.60 | – | < 4.60 | < 4.60 | 4.55 | < 4.60 | – | < 4.60 | – | – |
| Cn1cc(C(=O)Nc2nc(-c3ccc4c(c3)CCC(=O)N4)cs2)c(C(C)(C)C)n1 [Compound 38, 3-(tert-butyl)-1-methyl-N-(4-(2-oxo-1,2,3,4-tetrahydroquinolin-6-yl)thiazol-2-yl)-1H-pyrazole-4-carboxamide] | < 4.60 | 5.15 | < 4.60 | 4.62 | < 4.60 | – | 4.89 | < 4.60 | < 4.60 | 5.15 | – | < 4.60 | – | – |
| CCn1ncc(C(=O)Nc2nc(-c3ccc4c(c3)CCC(=O)N4)cs2)c1C1CC1 [Compound 33, 5-cyclopropyl-1-ethyl-N-(4-(2-oxo-1,2,3,4-tetrahydroquinolin-6-yl)thiazol-2-yl)-1H-pyrazole-4-carboxamide] | < 4.60 | < 4.60 | < 4.60 | < 4.60 | < 4.60 | – | < 4.60 | < 4.60 | < 4.60 | < 4.60 | > 25 µM | < 4.60 | – | – |
| Cn1cc(C(=O)Nc2nc(-c3ccc4c(c3)CCC(=O)N4)cs2)c(C(F)F)n1 [Compound 27, 3-(difluoromethyl)-1-methyl-N-(4-(2-oxo-1,2,3,4-tetrahydroquinolin-6-yl)thiazol-2-yl)-1H-pyrazole-4-carboxamide] | < 4.60 | < 4.60 | < 4.60 | < 4.60 | < 4.60 | – | < 4.60 | < 4.60 | 4.85 | 4.80 | – | < 4.60 | – | – |
